What was measured:
[1] = tested on: spleen cells; assay: Lymphocyte transformation induced by ConA; assay type: in vivo, NIH mice; conditions: 0.02 g/kg
Experimental: 80 NIH mice, half male and half female, were divided into 8 groups randomly and drenched with the correspondent medicines once a day for 10 days. 24 hours after the last administration, all the mice were killed to sample the spleen cells aseptically. Then the samples were washed by the Hank's liquor for 2 times and nonserum RPMI1640 liquor for 1 time. Then the clear samples were adjusted to the 2×10^6/ml cell suspension with 5% FCS-RPMI liquor. The 96-hole flat bottom cell culturing batten was added with the cell suspension on the quantity of 100 μl/hole. Each sample was cultured with 3 copies. 2 holes were added in 2 ng ConA each as the stimulating reagent. The other hole was not added in the ConA and kept as the control hole. The batten was cultured in 5% CO2 at 37° C. for 72 hours. 14 hours before the end of the culture, each hole was added in 3H-TdR 0.1μ Ci. The cells were harvested by the multihead cell harvesting instrument and measured the cpm value. The average value was adopted as the sample's cpm value. The average value and the stimulating index of the different groups were compared directly. The stimulating index was calculated as following: […]

[2] = tested on: IL-6; assay: IL-6 of spleen cells from dosed mice (MH60 cells); assay type: in vivo, NIH mice; conditions: 0.02 g/kg, 10 days
Experimental: 70 NIH mice, 18-22 g weight, half male and half female, were divided into 7 groups at random. All the groups were drenched with the correspondent medicines (fengshiping and the other medicines). The medicines were drenched once a day for 10 days. 24 hours after the last administration, all the mice were killed and sampled the macrophage and spleen cells from the abdominal carvity. The IL-1 and IL-6 in the samples were measured.
The spleen cells were sampled in the asepsis condition. Then the samples were washed by the Hank's liquor for 2 times and nonserum RPMI1640 liquor for 1 time. Then the clear samples were adjusted to the 2×10^6/ml cell suspension with 5% FCS-RPMI liquor. 1 ml of the suspension was added to the round-bottom centrifuge tube. After adding the ConA (10 ng/ml), the samples were cultured in the 5% CO2 at 37° C. for 72 hour.
The MH60 cells, which grew depending on the IL-6 and were on the logarithmic growth stage, were adjusted to the 1×10^5/ml cell suspension with the 5% FC-RPMI1640.
The 96-hole flat bottom cell culturing batten was added with the MH60 cell suspension on the quantity of 100 μl/hole and the culturing supernate 25 μl/hole. Then the fluid in each hole was adjusted to the 200 μl with the 5% FCS-RPMI 1640. […] And then they were measured the OD at the wavelength 570 nm and 630 nm. […]

[3] = tested on: IL-2; assay: IL-2 level of cultured cells from dosed mice (CTLL cells); assay type: in vivo, ICR mice; conditions: 0.02 g/kg, 10 days
Experimental: 60 ICR mice, 1822 g, half male and half female, were divided into 6 groups at random. Each group was drenched of the correspondent medicines including the different dosages of Fengshiping and the other medicines. The medicines were administrated once a day for 10 days. 24 hours after the last administration, the mice were sampled the macrophage and spleen cells from the abdominal cavity in the aseptic condition. The samples were washed with Hank's liquor for 2 times and non-serum RPIM 1640 liquor for 1 time. Then the washed samples were diluted to the suspension with the 5% FCS-RPMI 1640 at the concentration of 2×10^8/ml. Then the suspensions were added with 10 ng/ml LPS or the 10 ng/ml ConA and cultured in the 5% CO2 condition for 48 hours at 37° C. Then the cultured suspension were measured the TNF α and IL-2 levels on the usual methods.
The CTLL cells which was on the logarithmic growth phase and whose growth depends on the IL-2, were adjusted to the suspension at the concentration of 1×10^5/ml with the 5% FCS-RPMI 1640. Then the 96 hole cell culturing batten were added with the CTLL cell suspension on the quantity of 100 μl/hole. The supernates were added on the quantity of 100 μl/hole and each sample was added to 3 holes. […] The samples were cultured for 3 hours at 37° C., and then measured the OD at the wavelength 570 nm and 630 nm. […]

[4] = tested on: DTH caused by DNFB; assay: Delayed hypersensitivity (DTH) caused by DNFB in the mouse ear; assay type: in vivo, NIH mouse
Experimental: Each mouse was led to hypersensitivity reaction by using the 1% DNFB acetone solution on the dosage of 0.025 ml at the right place of the abdomen where the pilus had been cut yet. Using the same solution on the same place was to enhance the hypersensitivity reaction on the third day. On the fifth day, all the mice were smeared with the 1% DNFB edible oil solution at the mice's right ears on the dosage of 0.01 ml each. 24 hours later, all the mice were killed. The mouse's 2 ears were weighted by the torsion balance and the difference of the 2 ears was recorded as the DTH degree caused by the DNFB. The experiment was carried out on the different immune and administration processes.
The immune and administration processes is as following: [drawing 1]

[5] = 0.05 g/kg, administration day −2˜0
[6] = 0.05 g/kg, administration day −2˜2
[7] = 0.1 × 3 g/kg, 0, 2, 4 day once a day

Question: For `O=P1(N(CCCl)CCCl)NCCCO1` (stereo not drawn) [cyclophosphane], which Stimulating index [1] is on record?
Answer: The Stimulating index was 13.66 ± 2.28.

Question: What about the cpm [1] of the same compound?
Answer: The cpm was 9922 ± 1145 cpm.

Question: What about the IL-6 [2] of the same compound?
Answer: Its IL-6 is 49.6 ± 6.7 IU/ml.

Question: What about the IL-2 [3] of the same compound?
Answer: The IL-2 was 10.10 ± 3.00 IU/ml.

Question: What about the “Percent of ear swelling” value [4, 5] of the same compound?
Answer: Its value is 37.47 ± 6.71.

Question: And the Percent of inhibition [4, 5]?
Answer: The Percent of inhibition was 11.7%.

Question: And the “Percent of ear swelling” value [4, 6]?
Answer: Its value is 39.40 ± 10.78.

Question: And the Percent of inhibition [4, 6]?
Answer: Its Percent of inhibition is 8.1%.

Question: And the “Percent of ear swelling” value [4, 7]?
Answer: Its value is 23.00 ± 7.65.

Question: What about the Percent of inhibition [4, 7] of the same compound?
Answer: Its Percent of inhibition is 40.3%.

Question: What about the “Percent of ear swelling” value ([4]; 0.25 g/kg, −3 d) of the same compound?
Answer: Its value is 41.84 ± 7.75.

Question: And the Percent of inhibition ([4]; 0.25 g/kg, −3 d)?
Answer: The Percent of inhibition was −8.7%.

Reference: patent publication US20050220906A1, “Pharmaceutical composition for treating rheumatism and the preparation thereof” (priority 2002, published 2005)
